One test deals with Pythium ultimum. Kind of test: Pythium ultimum/Liquid Culture (Seedling Damping Off). The class given is cell-based. Particulars: Globisporangium ultimum, read-out: control of Pythium ultimum compared to untreated control (inhibition of growth).
Another test has as its system Phytophthora infestans. It is filed as in vivo, Phytophthora infestans (on tomato leaf disks). The settings on record: 200 ppm; tomato leaf disks, preventative, inoculated 1 day after application; assessed 5-7 days after application.
The subject of another test is Plasmopara viticola. The class given is in vivo, Plasmopara viticola (on grape vine leaf disks). The settings on record: 200 ppm; grape vine leaf disks, preventative, inoculated 1 day after application; assessed 6-8 days after application.

Molecules are shown by their SMILES.

In general, inhibition refers to the drop in the measured response relative to a control, in per cent. For the compound `COC(=O)Nc1ccc(-c2cnn3ccc(C(=O)N(CC#N)c4ccc(Cl)c(OC)c4)cc23)cn1` [Compound 2, methyl N-[5-[5-[(4-chloro-3-methoxy-phenyl)-(cyanomethyl)carbamoyl]pyrazolo[1,5-a]pyridin-3-yl]-2-pyridyl]carbamate], the inhibition at 20 ppm in the test with Pythium ultimum was at least 80%. Further, in the test on Phytophthora infestans, the “control of Phytophthora infestans compared to untreated control (percent disease control)” value was “at least 80%”.
With `COC(=O)Nc1ccc(-c2cnn3ccc(C(=O)N(C)c4ccc(F)c(OC)c4)cc23)cn1` [Compound 4, methyl N-[5-[5-[(4-fluoro-3-methoxy-phenyl)-methyl-carbamoyl]pyrazolo[1,5-a]pyridin-3-yl]-2-pyridyl]carbamate], in the test with Pythium ultimum, the inhibition at 20 ppm is at least 80%. Also, the “control of Plasmopara viticola compared to untreated control (percent disease control)” value with Plasmopara viticola is “at least 80%”. For the same compound, the “control of Phytophthora infestans compared to untreated control (percent disease control)” value in the test on Phytophthora infestans is listed as “at least 80%”.
`COC(=O)Nc1ccc(-c2cnn3ccc(C(=O)N(CC#N)c4ccc(F)c(OC)c4)cc23)cn1` [Compound 3, methyl N-[5-[5-[cyanomethyl-(4-fluoro-3-methoxy-phenyl)carbamoyl]pyrazolo[1,5-a]pyridin-3-yl]-2-pyridyl]carbamate]: the “control of Plasmopara viticola compared to untreated control (percent disease control)” value with Plasmopara viticola is listed as “at least 80%”. Also, in the test on Phytophthora infestans, the “control of Phytophthora infestans compared to untreated control (percent disease control)” value was “at least 80%”.
Consider `CC(=O)Nc1ccc(-c2cnn3ccc(C(=O)N(C)c4ccc(Cl)cc4)cc23)cc1` [Compound 6, 3-(4-acetamidophenyl)-N-(4-chlorophenyl)-N-methyl-pyrazolo[1,5-a]pyridine-5-carboxamide], for which the inhibition at 20 ppm in the test with Pythium ultimum was at least 80%.
The same measure, in the same setting: for `COC(=O)Nc1ccc(-c2cnn3ccc(C(=O)N(C)c4ccc(Cl)cc4)cc23)cc1` [Compound 5, methyl N-[4-[5-[(4-chlorophenyl)-methyl-carbamoyl]pyrazolo[1,5-a]pyridin-3-yl]phenyl]carbamate] the value was at least 80%.
Consider `COCN(C(=O)c1ccn2ncc(-c3ccc(NC(=O)OC)nc3)c2c1)c1ccc(F)c(OC)c1` [Compound 1, methyl N-[5-[5-[(4-fluoro-3-methoxy-phenyl)-(methoxymethyl)carbamoyl]pyrazolo[1,5-a]pyridin-3-yl]-2-pyridyl]carbamate], for which the inhibition at 20 ppm in the test with Pythium ultimum is at least 80%. Also, the “control of Plasmopara viticola compared to untreated control (percent disease control)” value in the test with Plasmopara viticola is given as “at least 80%”. Also, in the test with Phytophthora infestans, the “control of Phytophthora infestans compared to untreated control (percent disease control)” value is listed as “at least 80%”.

These data come from patent US20260293900A1 (priority 2023, published 2026).
